Assay results as given in paper PMC9230431, “Application of In Silico Filtering and Isothermal Titration Calorimetry for the Discovery of Small Molecule Inhibitors of MDM2” (Pharmaceuticals, 2022).
Read-outs that look alike come from different tables or passages of the source.

Biological target: T1, MDM2 (Homo sapiens, UniProt Q00987)
T1 construct: His tag-GB1-TEV site fusion expressed in E. coli BL21; His-GB1 removed by TEV cleavage
Assay: ITC, MDM2 titrated into compound, single-site fit
Type: binding
Text: ITC, MDM2 titrated into compound, single-site fit on MDM2

T1 sequence (Q00987 5-125): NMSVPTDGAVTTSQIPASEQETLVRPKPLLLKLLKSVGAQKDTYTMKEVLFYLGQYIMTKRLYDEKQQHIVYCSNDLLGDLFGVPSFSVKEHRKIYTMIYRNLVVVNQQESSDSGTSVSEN

Row | Compound | Kd [µM] | Kd (50 mM sodium phosphate pH 6.8, 150 mM NaCl, 5% DMSO, 1 mM TCEP) [µM]
1 | Cc1cccc(C)c1NC(=O)C(c1ccc(Cl)cc1)N1C(=O)CC1c1cccc(C(F)(F)F)c1 (stereo not shown) [M1-7] | 33.5 | 
2 | Cc1cccc(C)c1NC(=O)C(c1ccc(Cl)cc1)N1C(=O)CC1c1ccsc1 (stereo not shown) [M1-10] | 19.5 | 
3 | Cc1ccc(C2CC(=O)N2C(C(=O)Nc2c(C)cccc2C)c2ccc(Cl)cc2)o1 (stereo not shown) [M1-11] | 13.1 | 
4 | Cc1cccc(C)c1NC(=O)C(c1ccc(Cl)cc1)N1C(=O)CC1c1ccc(OC(C)C)cc1 (stereo not shown) [M1] | 2.85 | 
5 | Cc1[nH]c2ccccc2c1C(NS(=O)(=O)c1ccc(Cl)cc1)C(Cl)(Cl)Cl (stereo not shown) [M2-3] |  | 49.7
6 | O=S(=O)(NC(c1c[nH]c2ccc(F)cc12)C(Cl)(Cl)Cl)c1ccc(Cl)cc1 (stereo not shown) [M2-8] | 1.58 | 
7 | COc1cc(Cl)ccc1S(=O)(=O)NC(c1c[nH]c2ccccc12)C(Cl)(Cl)Cl (stereo not shown) [M2-15] | 3.16 | 
8 | Cc1ccc(S(=O)(=O)NC(c2c[nH]c3cc(F)ccc23)C(Cl)(Cl)Cl)cc1 (stereo not shown) [M2-18] | 1.33 | 
9 | O=S(=O)(NC(c1c[nH]c2ccccc12)C(Cl)(Cl)Cl)c1ccc(Cl)cc1 (stereo not shown) [M2] | 2.08 | 
10 | COc1ccccc1-c1nnc(SC2CCCCC2=O)n1-c1ccc(Cl)cc1 (stereo not shown) [M3] | 16.6 | 

The remaining lines, values ahead:

Row | Kd [µM] | Kd (50 mM sodium phosphate pH 6.8, 150 mM NaCl, 5% DMSO, 1 mM TCEP) [µM] | Compound
11 | 0.979 |  | O=S(=O)(NC(c1c[nH]c2cccc(F)c12)C(Cl)(Cl)Cl)c1ccc(Cl)cc1 (stereo not shown) [M2-7]
12 | 0.578 |  | O=S(=O)(NC(c1c[nH]c2cccc(Cl)c12)C(Cl)(Cl)Cl)c1ccc(Cl)cc1 (stereo not shown) [M2-10]
13 | 0.704 |  | O=S(=O)(NC(c1c[nH]c2cc(Cl)ccc12)C(Cl)(Cl)Cl)c1ccc(Cl)cc1 (stereo not shown) [M2-11]
14 | 0.844 |  | Cc1ccc2c(C(NS(=O)(=O)c3ccc(Cl)cc3)C(Cl)(Cl)Cl)c[nH]c2c1 (stereo not shown) [M2-12]
15 | 0.489 |  | O=S(=O)(NC(c1c[nH]c2cc(F)cc(F)c12)C(Cl)(Cl)Cl)c1ccc(Cl)cc1 (stereo not shown) [M2-13]
16 | 1.22 |  | O=S(=O)(NC(c1c[nH]c2cc(F)ccc12)C(Cl)(Cl)Cl)c1ccc(Cl)cc1 (stereo not shown) [M2-14]
